Source: the CheMixHub viscosity set
Where “and” joins values, the source holds several entries; their conditions need not be identical. Equal entries are not always repeated.

Assay: xn = mol fraction of the nth substance listed

CC(=O)O + c1ccccc1
Details	viscosity
293.15 K, 101 kPa, x1 = 0.2158	0.658 mPa·s
293.15 K, 101 kPa, x1 = 0.3643	0.684 mPa·s
293.15 K, 101 kPa, x1 = 0.4322	0.67 mPa·s
293.15 K, 101 kPa, x1 = 0.5213	0.684 mPa·s
293.15 K, 101 kPa, x1 = 0.7321	0.723 mPa·s
293.15 K, 101 kPa, x1 = 0.9233	0.808 mPa·s
298.1 K, 101 kPa, x1 = 0.2	0.598 mPa·s
298.1 K, 101 kPa, x1 = 0.4	0.617 mPa·s
298.1 K, 101 kPa, x1 = 0.5	0.636 mPa·s
298.1 K, 101 kPa, x1 = 0.6	0.672 mPa·s
298.1 K, 101 kPa, x1 = 0.8	0.802 mPa·s
298.15 K, 101 kPa, x1 = 0.2158	0.632 mPa·s
298.15 K, 101 kPa, x1 = 0.3643	0.661 mPa·s
298.15 K, 101 kPa, x1 = 0.4322	0.65 mPa·s
298.15 K, 101 kPa, x1 = 0.5213	0.663 mPa·s
298.15 K, 101 kPa, x1 = 0.7321	0.668 mPa·s
298.15 K, 101 kPa, x1 = 0.9233	0.716 mPa·s
298.15 K, 101.33 kPa, x2 = 0.1	0.9008 mPa·s
298.15 K, 101.33 kPa, x2 = 0.1339	0.893 mPa·s
298.15 K, 101.33 kPa, x2 = 0.25	0.7374 mPa·s and 0.754 mPa·s
298.15 K, 101.33 kPa, x2 = 0.2921	0.734 mPa·s
298.15 K, 101.33 kPa, x2 = 0.4	0.655 mPa·s
298.15 K, 101.33 kPa, x2 = 0.4179	0.666 mPa·s
298.15 K, 101.33 kPa, x2 = 0.5	0.6298 mPa·s and 0.653 mPa·s
298.15 K, 101.33 kPa, x2 = 0.7231	0.597 mPa·s
298.15 K, 101.33 kPa, x2 = 0.75	0.5983 mPa·s
298.15 K, 101.33 kPa, x2 = 0.7711	0.596 mPa·s
298.15 K, 101.33 kPa, x2 = 0.8704	0.591 mPa·s
298.15 K, 101.33 kPa, x2 = 0.9645	0.594 mPa·s
303.15 K, 101 kPa, x1 = 0.2158	0.61 mPa·s
303.15 K, 101 kPa, x1 = 0.3643	0.628 mPa·s
303.15 K, 101 kPa, x1 = 0.4322	0.624 mPa·s
303.15 K, 101 kPa, x1 = 0.5213	0.642 mPa·s
303.15 K, 101 kPa, x1 = 0.7321	0.653 mPa·s
303.15 K, 101 kPa, x1 = 0.9233	0.71 mPa·s
303.15 K, 101 kPa, x2 = 0.1603	0.8519 mPa·s
303.15 K, 101 kPa, x2 = 0.39	0.6887 mPa·s
303.15 K, 101 kPa, x2 = 0.7224	0.5822 mPa·s
313.15 K, 101 kPa, x2 = 0.1603	0.7841 mPa·s
313.15 K, 101 kPa, x2 = 0.39	0.6245 mPa·s
313.15 K, 101 kPa, x2 = 0.7224	0.5111 mPa·s
323.15 K, 101 kPa, x2 = 0.1603	0.7112 mPa·s
323.15 K, 101 kPa, x2 = 0.39	0.5776 mPa·s
323.15 K, 101 kPa, x2 = 0.7224	0.4939 mPa·s

C[Si]1(C)O[Si](C)(C)O[Si](C)(C)O[Si](C)(C)O1 + CCCCCCCCCCCCCC
viscosity [mPa·s], 103 kPa
Details	298.15 K	308.15 K	318.15 K
x1 = 0.05	1.944	1.605	1.347
x1 = 0.1	1.905	1.579	1.327
x1 = 0.15	1.881	1.56	1.312
x1 = 0.2	1.859	1.536	1.293
x1 = 0.25	1.853	1.523	1.282
x1 = 0.3	1.843	1.527	1.287
x1 = 0.35	1.833	1.52	1.281
x1 = 0.4	1.831	1.518	1.278
x1 = 0.45	1.82	1.509	1.274
x1 = 0.5	1.815	1.507	1.273
x1 = 0.55	1.817	1.51	1.275
x1 = 0.6	1.824	1.515	1.279
x1 = 0.65	1.831	1.522	1.285
x1 = 0.7	1.844	1.533	1.294
x1 = 0.7498	1.861	1.548	1.307
x1 = 0.8	1.887	1.571	1.324
x1 = 0.85	1.922	1.6	1.349
x1 = 0.8999	1.965	1.632	1.376
x1 = 0.95	2.014	1.672	1.406

CC(=O)O + c1ccncc1
Details	viscosity [mPa·s]
293.15 K, 101 kPa, x2 = 0.104	4.421
293.15 K, 101 kPa, x2 = 0.2205	5.037
293.15 K, 101 kPa, x2 = 0.383	3.024
293.15 K, 101 kPa, x2 = 0.401	2.885
293.15 K, 101 kPa, x2 = 0.481	2.188
293.15 K, 101 kPa, x2 = 0.579	1.762
293.15 K, 101 kPa, x2 = 0.738	1.289
303.15 K, 101 kPa, x1 = 0.135	0.9842
303.15 K, 101 kPa, x1 = 0.2599	1.139
303.15 K, 101 kPa, x1 = 0.3756	1.346
303.15 K, 101 kPa, x1 = 0.4837	1.648
303.15 K, 101 kPa, x1 = 0.5841	2.075
303.15 K, 101 kPa, x1 = 0.6781	2.704
303.15 K, 101 kPa, x1 = 0.766	3.398
303.15 K, 101 kPa, x1 = 0.8509	3.624
303.15 K, 101 kPa, x1 = 0.9266	2.558
308.15 K, 101.33 kPa, x2 = 0.15	3.2
308.15 K, 101.33 kPa, x2 = 0.2	3.17
308.15 K, 101.33 kPa, x2 = 0.25	2.887
308.15 K, 101.33 kPa, x2 = 0.3	2.55
308.15 K, 101.33 kPa, x2 = 0.4	1.928
308.15 K, 101.33 kPa, x2 = 0.6	1.27
308.15 K, 101.33 kPa, x2 = 0.8	1.052
313.15 K, 101.33 kPa, x1 = 0.5	1.68
313.15 K, 101.33 kPa, x1 = 0.8	2.91
313.15 K, 101.33 kPa, x1 = 0.825	2.93
313.15 K, 101.33 kPa, x1 = 0.85	2.85
318.15 K, 101.33 kPa, x2 = 0.15	2.35
318.15 K, 101.33 kPa, x2 = 0.2	2.38
318.15 K, 101.33 kPa, x2 = 0.25	2.2
318.15 K, 101.33 kPa, x2 = 0.3	1.985
318.15 K, 101.33 kPa, x2 = 0.4	1.52
318.15 K, 101.33 kPa, x2 = 0.6	1.07
318.15 K, 101.33 kPa, x2 = 0.8	0.896

CCC[N+](C)(C)C.O=S(=O)([N-]S(=O)(=O)C(F)(F)F)C(F)(F)F + CCC[N+]1(C)CCCCC1.O=S(=O)([N-]S(=O)(=O)C(F)(F)F)C(F)(F)F
101.3 kPa
Details	viscosity [mPa·s]
298.15 K, x1 = 0.8	88.1
303.15 K, x1 = 0.8	69.7
308.15 K, x1 = 0.2	78.3
308.15 K, x1 = 0.6	63.6
308.15 K, x1 = 0.8	56.2
313.15 K, x1 = 0.2	62.4
313.15 K, x1 = 0.4	56.9
313.15 K, x1 = 0.6	51.5
318.15 K, x1 = 0.2	50.5

ClCCl + Cc1cccc(C)c1
101 kPa
Details	viscosity [mPa·s]
293.15 K, x1 = 0.2258	0.583
293.15 K, x1 = 0.4249	0.553
293.15 K, x1 = 0.4896	0.541
293.15 K, x1 = 0.5542	0.528
293.15 K, x1 = 0.6288	0.512
293.15 K, x1 = 0.769	0.482
293.15 K, x1 = 0.8151	0.472
298.15 K, x1 = 0.2398	0.55
298.15 K, x1 = 0.4075	0.527
298.15 K, x1 = 0.4997	0.511
298.15 K, x1 = 0.5622	0.501
298.15 K, x1 = 0.6288	0.485
298.15 K, x1 = 0.6891	0.474
298.15 K, x1 = 0.7634	0.461
298.15 K, x1 = 0.8183	0.451
298.15 K, x1 = 0.8586	0.446
303.15 K, x1 = 0.3947	0.501
303.15 K, x1 = 0.4925	0.483
303.15 K, x1 = 0.5836	0.466
303.15 K, x1 = 0.6551	0.453
303.15 K, x1 = 0.7164	0.441
303.15 K, x1 = 0.7934	0.428
303.15 K, x1 = 0.8418	0.421
303.15 K, x1 = 0.8669	0.417

CC(=O)O + CCC(C)=O
viscosity [mPa·s], 101 kPa
Details	x1 = 0.1006	x1 = 0.2003	x1 = 0.3011	x1 = 0.4019	x1 = 0.5031	x1 = 0.6006	x1 = 0.7023	x1 = 0.7985	x1 = 0.8986
298.15 K	0.4312	0.4737	0.5266	0.5832	0.6507	0.7259	0.8152	0.9085	1.013
308.15 K	0.3905	0.4255	0.4697	0.5173	0.573	0.6346	0.7132	0.7902	0.879
318.15 K	0.3521	0.3832	0.4196	0.4601	0.5058	0.559	0.6203	0.6845	0.7622

CCNc1ccccc1 + CCCCCCCCCCO
viscosity [mPa·s], 101 kPa
Details	303.15 K	308.15 K	313.15 K
x1 = 0.0817	7.725	7.287	6.857
x1 = 0.1745	6.632	6.215	5.818
x1 = 0.2651	5.714	5.323	4.959
x1 = 0.3524	4.951	4.585	4.253
x1 = 0.4321	4.345	4.002	3.697
x1 = 0.5012	3.88	3.557	3.274
x1 = 0.5685	3.476	3.173	2.909
x1 = 0.6325	3.131	2.845	2.6
x1 = 0.6958	2.825	2.556	2.327
x1 = 0.7521	2.579	2.324	2.109
x1 = 0.8012	2.382	2.14	1.937
x1 = 0.8562	2.18	1.952	1.762
x1 = 0.9021	2.027	1.81	1.63

ClCCCl + COCCO
298 K, 101.33 kPa
Details	viscosity [mPa·s]
x2 = 0.1031	0.803
x2 = 0.1362	0.811
x2 = 0.2067	0.83
x2 = 0.2908	0.882
x2 = 0.395	0.954
x2 = 0.5147	1.059
x2 = 0.5965	1.138
x2 = 0.6926	1.232
x2 = 0.7409	1.28
x2 = 0.9141	1.458

ClCCCl + C1CCOC1
303.15 K, 101 kPa
Details	viscosity [mPa·s]
x2 = 0.0815	0.7038
x2 = 0.1436	0.6852
x2 = 0.2414	0.6571
x2 = 0.3055	0.6394
x2 = 0.4137	0.6105
x2 = 0.5015	0.5879
x2 = 0.6095	0.5606
x2 = 0.7289	0.5307
x2 = 0.8142	0.5097
x2 = 0.9176	0.485

ClCCl + COC(=O)OC
viscosity [mPa·s], 101.33 kPa
Details	x2 = 0.0957	x2 = 0.2018	x2 = 0.3029	x2 = 0.3958	x2 = 0.5009	x2 = 0.5996	x2 = 0.6992	x2 = 0.7599	x2 = 0.9005
298.15 K	0.4	0.423	0.441	0.458	0.472	0.485	0.495	0.5	0.52
303.15 K	0.384	0.4	0.419	0.431	0.447	0.461	0.47	0.478	0.49
308.15 K	0.374	0.385	0.399	0.409	0.42	0.43	0.44	0.448	0.461

ClCCl + COc1ccccc1
303.15 K, 101.3 kPa
Details	viscosity [mPa·s]
x2 = 0.069	0.425
x2 = 0.321	0.527
x2 = 0.357	0.54
x2 = 0.4045	0.567
x2 = 0.6109	0.665
x2 = 0.658	0.688
x2 = 0.8807	0.82
